Measured values as given in patent US9566334B2, “Combinations of a PI3K/AKT inhibitor compound with an HER3/EGFR inhibitor compound and use thereof in the treatment of a hyperproliferative disorder” (THE GENERAL HOSPITAL CORPORATION, priority 2012, dated 2017).

Columns and labels:
TNBC patients = assay: Neoadjuvant trial of panitumumab with standard chemotherapy (pCR, EGFR and HER3 IHC); assay type: in vivo, human
Experimental: Patient samples: Tumor tissue was fixed in 10%-buffered formalin for 48 h and further embedded in paraffin. Four-micron sections were deparaffinized in xylene and hydrated in graded alcohols. For EGFR detection, the antigen was retrieved by protease treatment (8 min at 37° C.) and the sections further incubated at 37° C. for 1 h with pre-diluted, ready-to-use mouse monoclonal anti-EGFR (clone 3C6, Ventana, Tucson, Ariz.). The antigen-antibody reaction was visualized by UltraView DAB reveal system in a Benchmark XT automated IHC stainer (all from Ventana). For HER3, the antigen retrieval was performed by heating the sections at 97° C. for 20 min in EnVision® Target Retrieval Solution High pH (Dako) in PT-Link apparatus (Dako). The tissues were then incubated at 37° C. for 2 h with mouse monoclonal anti-HER3 (clone DAK-H3-IC, Dako, Glostrup, Denmak) diluted at 1:50. […] For each patient the pre-treatment and the post-treatment tumor sample were run together. IHC staining was interpreted by an expert pathologist who was blind to patient information. Both EGFR and HER3 expressions were quantified using an arbitrary scale having 0, 0.5, 1, 1.5, 2, 2.5 and 3 as measures of increasing staining intensity. EGFR and HER3 histoscores were defined as a sum of products obtained by multiplying the staining intensity with the percentage of stained cells.
FFPE specimens for IHC analyses of EGFR and HER3 expression were obtained from the institutions participating in two French multicenter pilot phase II neoadjuvant trials which tested the efficacy of an anti-EGFR antibody combined to chemotherapy in TNBC stage II-IIIA pts. One trial regimen consisted of 8 cycles, administered each 3 weeks. First 4 cycles contained 9 mg/kg of panitumumab combined with 500 mg/m2 of each 5-fluorouracil and cyclophosphamide plus 100 mg/m2 of epirubicin. Last 4 cycles had panitumumab with 100 mg/m2 docetaxel instead of 3 cytotoxics previously mentioned. […] All patients underwent surgery at completion of treatment. Pathologic complete response (pCR) was the primary endpoint with clinical response and toxicity as secondary endpoints. […] Tumor tissue samples were systematically collected before and at the end of the neoadjuvant treatment and collection was centralized at the Jean Perrin Comprehensive Cancer Center where molecular and pathological analyses were performed. pCR was evaluated using Chevallier's (Chevallier et al., American Journal of Clinical Oncology 16, 223 (1993)) and Sataloff's (Sataloff et al., Journal of the American College of Surgeons 180, 297 (1995)) classifications.

[1] = tested on: HCC70 and MDA-MB-468 cells; assay: Five days proliferation analysis (Crystal Violet / CellTiter-Glo); assay type: cell-based; conditions: 5 days; MEHD7945A 10 nM, GDC-0068 and GDC-0941 1 uM
Experimental: Whether the combination of MEHD7945A with GDC-0068 or GDC-0941 would result in enhanced antiproliferative activity was tested in both HCC70 and MDA-MB-468 cells.
(§1) For proliferation, 5×10^5 cells were seeded in 96-well plates and treated with the indicated concentrations of GDC-0068, GDC-0941, and/or MEHD7945A. After 5 days, cells were fixed and stained with Crystal Violet. Cell proliferation was also analyzed with CellTiter-Glo Luminescent Cell Viability Assay (Promega) as described by the manufacturer. For heregulin (HRG, Peprotech) and epidermal growth factor (EGF, Peprotech)-induced proliferation, 5×10^5 cells were treated with GDC-0068, GDC-0941, and/or MEHD7945A in the presence of 4 ng/ml of ligands for 5 days and then stained with Crystal Violet.

[2] = tested on: EGFR, HER3 and downstream signaling pathways; assay: Western blot of EGFR, HER3 and downstream signaling in cells; assay type: cell-based
Experimental: HCC70 and MDA-MB-468 TNBC cell lines, characterized by elevated levels of EGFR and loss of PTEN expression, were treated with GDC-0068, GDC-0941, MEHD7945A, and the combinations of these inhibitors.
Cells were washed with ice-cold phosphate buffered saline (PBS) and scraped into ice-cold RIPA lysis buffer (Cell Signaling) supplemented with phosphatase inhibitor cocktails (Complete Mini, and PhosphoStop (Roche)). Lysates were cleared by centrifugation at 13,000 rpm for 10 minutes at 4° C., supernatants removed and assayed for protein concentration using the Pierce BCA Protein Assay Kit (Thermo Scientific). Thirty-five micrograms of total lysate was resolved on NuPAGE 4-12% Bis-Tris gels (Life Technologies) and electrophoretically transferred to Immobilon transfer membranes (Millipore). Membranes were blocked for 1 hour in 5% nonfat dry milk in TBS-Tween and then hybridized using the following primary antibodies in 5% bovine serum albumin (BSA) TBS-Tween: phospho-Akt (Ser473), phospho-Akt (Thr308), Akt, phospho-S6 (Ser(240/4), phospho-S6 (Ser235/6), S6, phospho-PRAS40 (Thr246), PRAS40, phospho-Erk (Thr202/Tyr204), Erk, phospho-EGFR (Tyr1068), EGFR, phospho-HER3 (Tyr1289), HER3 (1:500-1:1000, Cell Signaling). Beta-actin was used as a loading control (1:5000, Sigma), also in 5% BSA TBS-Tween. Mouse and rabbit horseradish peroxidase (HRP)-conjugated secondary antibodies (1:50,000, Amersham Biosciences) were diluted in 2% nonfat dry milk in TBS-Tween. Protein—antibody complexes were detected by chemiluminescence with SuperSignal West FemtoChemiluminescent Substrate (Thermo Scientific) and images were captured with a G-BOX camera system.

HCC70 cells = assay: Heregulin- and EGF-induced proliferation; assay type: cell-based
Experimental: as §1, with “MEH[…].” for “MEHD7945A.”, “MEH[…]” for “MEHD7945A”

[3] = tested on: patient-derived xenografts (PDX) of TNBC; assay: Patient-derived xenograft tumor growth; assay type: in vivo, mice; conditions: MEHD7945A 10 mg/Kg twice weekly, GDC-0941 75 mg/Kg daily, GDC-0068 40 mg/kg daily
Experimental: The activity of the same treatments in patient-derived xenografts (PDX) of TNBC was then tested.
(§2) For patient-derived xenograft (PDX) studies, tumors were subcutaneously implanted in 6-week old female athymic nude mice. Upon xenograft growth, tumor tissue was reimplanted into recipient mice, which were randomized upon implant growth. For the collection of circulating tumor cells (CTCs), tumors were implanted into the mammary pad of athymic nude mice.
(§3) Once tumors reached an average volume of about 150-250 mm^3, mice were randomized into treatment arms, with n=7-11 tumors/group. GDC-0068 [40 mg/kg] or GDC-0941 [75 mg/kg] were dissolved in 0.5% methylcellulose and 0.2% Tween-80 (MCT) solution and administered once daily via oral gavage. […] Tumors were measured by digital caliper over the entire treatment period. Tumor volume was determined using the formula: (length×width^2)×(π/6). Tumor volumes are plotted as means±SEM.

[4] = tested on: MDA-MB-468, HCC70 and patient-derived xenograft; assay: In vivo activity in three different models of TNBC; design: species or system mice
Experimental: Several TNBC cell lines were treated with MEHD7945A, a dual-action antibody that targets both EGFR and HER3, AKT inhibitor GDC-0068, and pan-PI3K inhibitor GDC -0941. Cell viability was measured by CellTiter-Glo and Crystal Violet. Both cell line- and patient -derived xenograft models of TNBC were treated with MEHD7945A, GDC-0068, GDC-0941, or the combination of MEHD7945A with either GDC-0068 or GDC-0941. Tumor size and histology were examined. Protein expression was measured by Western blot, Mass Spectometry, CEER and immunohistochemistry.
To test the activity of these compounds in vivo, three different models of TNBC were used: two cell line (MDA-MB-468 and HCC70)-based and a patient-derived xenograft.
All mouse studies were conducted through institutional Animal Care and Use Committee (IACUC) approved animal protocols in accordance with institutional guidelines. Six-week-old female athymic nude mice were purchased from Charles River Laboratories and housed in air-filtered laminar flow cabinets with a 12-hour light cycle and food and water ad libitum.
(§4) For cell line-derived xenograft studies, mice were injected subcutaneously with 1×10^7 HCC70 or MDA-MB-468 suspended in 150 μL culture media/Matrigel (BD Biosciences) in a 4:1 ratio. One μmol/L of 17β-estradiol was supplemented in the mouse drinking water as described (Garcia-Garcia et al., Clinical cancer research: an official journal of the American Association for Cancer Research 18, 2603 (2012)).
as §2, §3

EGFR and HER3 = assay: CEER analysis of active and total EGFR and HER3 in xenograft tumors; assay type: in vivo, mice
Experimental: The levels of EGFR and HER3 expression/activation in HCC70 tumors collected at the end of the experiments (day 39) was investigated. […] Frozen tissue was analyzed by Cooperative, Enhanced, Enzyme Immunoreactive (CEER), a platform that utilizes reverse-phase detection of nanogram quantities of protein.
The levels of pathway protein expression and their activation in xenografts were determined by CEER. (Kim et al., ASCO Annual Meeting abstract P2-06-13, (2010)) CEER utilizes the formation of unique immuno-complexes between capture antibodies printed on a nitrocellulose microarray surface, the target molecule in cell lysate reacted with the slide, and two independent detector-antibodies. One of the detector-antibody is conjugated to glucose oxidase, and the other is conjugated to horseradish peroxidase. Target detection (expressed as computational unit, CU) requires the presence of both detector-antibodies and the enzyme channeling event between glucose oxidase and horseradish peroxidase will not occur unless both antibodies are in close proximity.

[5] = tested on: MDA-MB-468- and HCC70-derived xenografts; assay: Cell line-derived xenograft tumor growth; assay type: in vivo, mice; conditions: MDA-MB-468 and HCC70 xenografts; p less than 0.01 combination vs monotherapy
Experimental: To expand these findings in vivo, the efficacy of MEHD7945A was tested in combination with either the Akt or PI3K inhibitor in both MDA-MB-468- and HCC70-derived xenografts.
as §4, §3

[6] = pre-treatment EGFR histoscore more than 70
[7] = pre-treatment EGFR histoscore ≦70
[8] = cells stimulated with either EGF or Heregulin

panitumumab: anti-EGFR antibody, epidermal growth factor receptor antagonist
residual disease at the time of surgery, rate (TNBC patients; 40 patients): 52.5% | pathological complete response (pCR) rate (TNBC patients; 40 patients, panitumumab with 4 standard cytotoxic agents, 24 weeks): 47.5% | increase in pCR compared to TNBC patients treated only with cytotoxics-based neoadjuvant chemotherapy (TNBC patients; comparison with Liedtke et al. 2008): two-fold increase | patients with residual disease at the time of surgery (TNBC patients; of 40 patients): 21 | patients achieving pathological complete response (pCR) (TNBC patients; of 40 patients, panitumumab with 4 standard cytotoxic agents, 24 weeks): 19 | non-pCR patients with higher HER3 expression in residual lesions versus pre-treatment (IHC) (TNBC patients; p equals 0.010): 7 out of 13 | non-pCR patients with decreased EGFR levels in residual tumors versus baseline (IHC) (TNBC patients; p equals 0.07): nine out of 21 | pCR rate (TNBC patients; [6]): 58% | patients with pCR (TNBC patients; [6]): 15 out of 26 | complete tumor regression rate (TNBC patients; [7]): 28% | patients with complete tumor regression (TNBC patients; [7]): 4 out of 14

MEHD7945A: dual-action antibody with two identical antigen binding domains, each of which specifically binds to both HER3 and EGFR
inhibition of cell proliferation/viability [1]: varying sensitivity | inhibition of the PI3K and ERK downstream pathways ([2]; addition of MEHD7945A 10 nM to GDC-0068 or GDC-0941, both cell lines): enhanced the inhibition of the PI3K and ERK downstream pathways | induction of EGFR and HER3 phosphorylation by GDC-0068 or GDC-0941 ([2]; addition of MEHD7945A 10 nM, both cell lines, 24 hours): prevented the induction of EGFR and HER3 phosphorylation | HER3/EGFR receptor phosphorylation [2, 8]: prevented HER3/EGFR receptor phosphorylation | effect on antiproliferative activity mediated by PI3K/Akt inhibition (HCC70 cells; HCC70 cells stimulated with EGF, antibodies 10 nM, GDC-0068 and GDC-0941 1 uM, 5 days): enhanced the antiproliferative activity mediated by PI3K/Akt inhibition | cooperation with the antiproliferative activity of GDC-0068 and GDC-0941 (HCC70 cells; HCC70 cells stimulated with heregulin (HRG), antibodies 10 nM, 5 days): superior to cetuximab | effect on antiproliferative activity of the PI3K inhibitors (HCC70 cells; [8]): improved the antiproliferative activity of the PI3K inhibitors | tumor growth [3]: delayed tumor growth | EGFR and HER3 phosphorylation consequent to PI3K inhibition in treated tumors ([4]; analysis of treated tumors): effectively prevented EGFR and HER3 phosphorylation | tumor growth ([4]; three TNBC models, MEHD7945A 10 mg/kg i.p. twice weekly, GDC-0068 40 mg/kg, GDC-0941 75 mg/kg oral once daily): variable delay in tumor growth | EGFR phosphorylation (CEER) (EGFR and HER3; HCC70 xenografts): blocked EGFR phosphorylation | HER3 activation (CEER) (EGFR and HER3; HCC70 xenografts): decreased HER3 activation | active and total levels of HER3 and EGFR (CEER) (EGFR and HER3; TNBC PDX, tumors harvested 2 h after the last drug administration): prevented receptor phosphorylation | tumor growth inhibition [5]: responded only modestly
